# Measurements reported in patent publication US8557875B2, “Gene transfer agent composition containing polyamidoamine dendron” (Public University Corporation Osaka Prefecture University, priority 2009, dated 2013).
# Columns and labels:
# Type in all cases: cell-based, human
# [1] = tested on: NHDF-ad cells; assay: Gene transfer (GFP expression, luciferase activity) versus commercial agents (Example 6); conditions: single transfection, 48 hours
# Procedure: (§1) pEGFP-C1 expressing a green fluorescent protein was used as a gene transfer plasmid; and NHDF-ad cells, which were normal […] cells derived from adult humans and also used for the production of iPS cells, were used as target cells. Lipoplexes were individually prepared using DL-U2. Then, gene transfer was performed.
# (NHDF-ad cells: 2.5×10^4 cells/well·DMEM+10% FBS (Pe/St) 500 μl)
# (i) A 20 mM Tris-HCl (pH 7.4) buffer was dispensed into two tubes at, individually, 56.3 μl (for NP ratio=3) and 37.5 μl (for NP ratio=6).
# (ii) 1.0 μg of plasmid DNA (pCAG-GFP) was added to each of the two tubes prepared in step (i) at 2 μl (1.0 μg), and the contents were stirred. […]
# (vii) 48 hours later, luciferase activity was measured according to the protocol of the luciferase assay system (Promega, E1501).
# Lipofectamine LTX: Gene transfer was performed according to the protocol, and luciferase activity was measured according to the protocol of the luciferase assay system (Promega, E1501).
# FuGENE HD: Gene transfer was performed according to the protocol, and luciferase activity was measured according to the protocol of the luciferase assay system (Promega, E1501).
# FuGENE6: Gene transfer was performed according to the protocol, and luciferase activity was measured according to the protocol of the luciferase assay system (Promega, E1501).
# [2] = tested on: HeLa cells; assay: Gene transfer evaluated by luciferase assay (Example 2); conditions: lipoplex with 1 μg plasmid DNA, various N/P ratios; FIG. 7 and FIG. 8
# Procedure: HeLa cells derived from human cervical cancer were seeded in a 24-well dish at 5.0×10^4 cells per well, and cultured overnight at 37° C. in 0.5 ml of a DMEM medium containing 10% FBS. Then, the cells were washed twice with PBS containing 0.36 mM CaCl2 and 0.42 mM MgCl2 (PBS (+)). Next, 0.5 ml of a DMEM medium containing 10% FBS was added, and the cells were supplemented with a lipoplex (100 μl) containing 1 μg of plasmid DNA per well and incubated at 37° C. for 4 hours. Afterward, the cells were washed three times with PBS (+) to remove the lipoplex not incorporated into the cells. Then, 1 ml of a DMEM medium containing 10% FBS was added, and the cells were cultured at 37° C. for 40 hours.
# The cells treated with the lipoplex and cultured for 40 hours were washed twice with PBS (+), and further washed once with PBS (−). […] The luciferase activity and the amount of protein in the resulting cell lysate were determined by luciferase assay and a Coomassie (Bradford) Protein Assay Kit (PIERCE). […] The luminescent substrate solution (20 μl) was mixed with a luminescent substrate liquid (95 μl) including luciferin (13.5 μg) and a 5 mg/ml albumin solution (5 ml), and subjected to measurement for 20 seconds with a Lumat LB9507 luminometer (Berthold Japan Co., Ltd.) for an amount of luminescence.
# [3] = tested on: NHDF-ad cells; assay: Multiple gene transfer, GFP expression (Example 7); conditions: transfer on Day 1, 3, 5, observed Day 7
# Procedure: as §1, with “plasmid,” for “plasmid;”, “humans” for “humans and”, “for” for “for the”, “performed multiple times.” for “performed.”
# (NHDF-ad cells: 2×10^4 cells/well·DMEM+10% FBS (Pe/St) 500 μl)
# (i) A 20 mM Tris-HCl (pH 7.4) buffer was dispensed into tubes at 71 μl (for NP ratio=6).
# (ii) 2.0 μg of plasmid DNA (pCAG-GFP) were added to each of the two tubes prepared in step (i) at 4 μl (2.0 μg), and the contents were stirred.
# (iii) To the prepared plasmid DNA solution was added 75 μl of a DL-U2 liposome solution (N/P ratio=6), and the whole was thoroughly mixed using a vortex and incubated at room temperature for 30 minutes.
# (iv) 50 μl of an Opti-MEM(R) I Reduced-Serum Medium was further added, and the whole was thoroughly mixed and allowed to stand at room temperature for 5 minutes.
# (v) 100 μl per well of the DL-plasmid DNA complex solutions was individually added to one well, and the contents were mixed by shaking the plate so as to be homogeneous.
# (vi) The cells were incubated at 37° C. in 5% CO2 for 4 hours, and the growth medium was replaced.
# For the cells subjected to gene transfer operations on Day 1, the same gene transfer was performed on Day 3 and Day 5 as well.
structure (smiles),measurement,setting,value
CCCCCCCC/C=C\CCCCCCCCN(CCCCCCCC/C=C\CCCCCCCC)CCC(=O)NCCN(CCC(=O)NCCN)CCC(=O)NCCN (racemic) [DL-G1-U2],gene transfer (GFP gene) efficiency,[1],allowed the gene to be transferred into the cells at a remarkably high frequency
same,gene transfer efficiency (luciferase activity) compared with G1,[2],two times higher
same,gene transfer activity / gene expression after multiple gene transfer,[3],allowed the gene to be expressed most efficiently
